Measured values published in the supplement of paper PMC11208160.

Test: recombinant UMI read abundance after kanamycin selection (control-corrected) (log10(CPM+1)); higher = more efficient recombination; extreme values may be limits of the assay; sequences stand for … in AGTGCAGAGAAAATCGGCCAGTTTTCTCTGCCTGCAGTCCGCATGCCGTGGGACCCCTTGGGTTCTAACCTGTTGCCTAGATTTATGCAGCGGACTGCCTTTCTCCCAAAGTGATAAACCGG…AGGTTGGTTTCACT; site = the 11-nt donor
Method in brief: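 In Escherichia coli, a pool of donor and donor-binding-loop pairs, each with a 12-nt UMI, was tested for the IS621 bridge recombinase. Plating was on IPTG (0.07 mM) plus kanamycin, or without selection, in two replicates. Recombinant UMIs were amplified by PCR across the donor–target junction and sequenced, and counts were reported as log10(CPM+1) after averaging and control-derived scaling.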
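Also: IS621 bridge recombinase in Escherichia coli cells against a fixed T5 target plasmid.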

| Sequence | recombinant UMI read abundance (log10) |
| --- | --- |
| CCCCACACATGGACCGGTTTTCCCGGTAATCCGTATTTGGA (site CCCCACACTTA) | 0.369 |
| CCCCACACATGGACCGGTTTTCCCGGTAATCCGTATTTGGA (site CCCCACACTTC) | 0.275 |
| CCCCACACATGGACCGGTTTTCCCGGTAATCCGTATTTGGA (site CCCCACACTTG) | 0 |
| CCCCACACATGGACCGGTTTTCCCGGTAATCCGTATTTGGA (site CCCCACACTTT) | 0 |
| CCCCACACATGGACCGGTTTTCCCGGTAATCCGTATTTGTG (site CCCCACACTAA) | 0.0034 |
| CCCCACACATGGACCGGTTTTCCCGGTAATCCGTATTTGTG (site CCCCACACTCA) | 0.00514 |
| CCCCACACATGGACCGGTTTTCCCGGTAATCCGTATTTGTG (site CCCCACACTGA) | 0 |
| CCCCACACATGGACCGGTTTTCCCGGTAATCCGTATTTGTG (site CCCCACACTTA) | 0.0257 |
| CCCCACTCATGGACCGGTTTTCCCGGTAATCCGTATTTGTA (site CCCCACACTTA) | 0 |
| CCCCACTCATGGACCGGTTTTCCCGGTAATCCGTATTTGTA (site CCCCACCCTTA) | 0.00571 |
| CCCCACTCATGGACCGGTTTTCCCGGTAATCCGTATTTGTA (site CCCCACGCTTA) | 0.00566 |
| CCCCACTCATGGACCGGTTTTCCCGGTAATCCGTATTTGTA (site CCCCACTCTTA) | 2.01 |
| CCCCATTCATGGACCGGTTTTCCCGGTAATCCGTATTTGGA (site CCCCATTCTTC) | 0.274 |
| CCCCCTACATGGACCGGTTTTCCCGGTAATCCGTATTTGAG (site CACCCTACTCT) | 0.0202 |
| CCCCCTACATGGACCGGTTTTCCCGGTAATCCGTATTTGAG (site CCCCCTACTCT) | 0.0375 |
| CCCCCTACATGGACCGGTTTTCCCGGTAATCCGTATTTGAG (site CGCCCTACTCT) | 0.0197 |
| CCCCCTACATGGACCGGTTTTCCCGGTAATCCGTATTTGAG (site CTCCCTACTCT) | 0.011 |

| Sequence | recombinant UMI read abundance (log10) |
| --- | --- |
| CCCCGGGCATGGACCGGTTTTCCCGGTAATCCGTATTTGGG (site CCCCGGGCTCC) | 0.182 |
| CCCGAAGCATGGACCGGTTTTCCCGGTAATCCGTATTTGTT (site CCCGAAGCTAA) | 1.18 |
| CCCGAGACATGGACCGGTTTTCCCGGTAATCCGTATTTGGT (site CCCGAGACTAC) | 0.543 |
| CCCGATCCATGGACCGGTTTTCCCGGTAATCCGTATTTGTG (site CCCGATCCTCA) | 1.73 |
| CCCGCACCATGGACCGGTTTTCCCGGTAATCCGTATTTGCA (site CCCGCACCTTG) | 0 |
| CCCGCCACATGGACCGGTTTTCCCGGTAATCCGTATTTGCC (site CCCGCCACTGG) | 2.07 |
| CCCGCGGCATGGACCGGTTTTCCCGGTAATCCGTATTTGGG (site CCCGCGGCTCC) | 0.0266 |
| CCCGGTCCATGGACCGGTTTTCCCGGTAATCCGTATTTGCA (site ACCGGTCCTTG) | 0 |
| CCCGGTCCATGGACCGGTTTTCCCGGTAATCCGTATTTGCA (site CACGGTCCTTG) | 0 |
| CCCGGTCCATGGACCGGTTTTCCCGGTAATCCGTATTTGCA (site CCAGGTCCTTG) | 0 |
| CCCGGTCCATGGACCGGTTTTCCCGGTAATCCGTATTTGCA (site CCCAGTCCTTG) | 0 |
| CCCGGTCCATGGACCGGTTTTCCCGGTAATCCGTATTTGCA (site CCCCGTCCTTG) | 0.0143 |
| CCCGGTCCATGGACCGGTTTTCCCGGTAATCCGTATTTGCA (site CCCGATCCTTG) | 0 |
| CCCGGTCCATGGACCGGTTTTCCCGGTAATCCGTATTTGCA (site CCCGCTCCTTG) | 0 |
| CCCGGTCCATGGACCGGTTTTCCCGGTAATCCGTATTTGCA (site CCCGGACCTTG) | 0 |
| CCCGGTCCATGGACCGGTTTTCCCGGTAATCCGTATTTGCA (site CCCGGCCCTTG) | 0 |
| CCCGGTCCATGGACCGGTTTTCCCGGTAATCCGTATTTGCA (site CCCGGGCCTTG) | 0.00671 |
